Numbers after ± are expanded uncertainties.
Test: xn = mol fraction of the nth substance listed
Conditions: Constant-volume piezometry

With `CCCCC` [pentane] + CCCO the mass density (483.15 K, 3273 kPa, Gas, x1 = 0.5) was 89.08 ± 0.28 kg/m3, the mass density (483.15 K, 3361 kPa, Gas, x1 = 0.5) was 96.03 ± 0.32 kg/m3 and the mass density (483.15 K, 3529 kPa, Gas, x1 = 0.8) was 106.6 ± 0.35 kg/m3. It also gave a mass density (483.15 K, 3605 kPa, Fluid (supercritical or subcritical phases), x1 = 0.9) of 123.58 ± 1.1 kg/m3, a mass density (483.15 K, 3709 kPa, Fluid (supercritical or subcritical phases), x1 = 0.9) of 134.38 ± 0.85 kg/m3 and a mass density (483.15 K, 3900 kPa, Fluid (supercritical or subcritical phases), x1 = 0.9) of 164.27 ± 1 kg/m3. The mass density (483.15 K, 3917 kPa, Fluid (supercritical or subcritical phases), x1 = 0.8) was 140.58 ± 1 kg/m3, the mass density (483.15 K, 3927 kPa, Liquid, x1 = 0.5) was 373.66 ± 0.76 kg/m3 and the mass density (483.15 K, 3981 kPa, Fluid (supercritical or subcritical phases), x1 = 0.8) was 156.35 ± 1 kg/m3. For the same compound, the mass density (483.15 K, 4002 kPa, Fluid (supercritical or subcritical phases), x1 = 0.9) was 189.82 ± 1.2 kg/m3, the mass density (483.15 K, 4026 kPa, Liquid, x1 = 0.5) was 384.78 ± 0.79 kg/m3 and the mass density (483.15 K, 4033 kPa, Fluid (supercritical or subcritical phases), x1 = 0.8) was 170.11 ± 1.1 kg/m3. It also gave a mass density (483.15 K, 4049 kPa, Fluid (supercritical or subcritical phases), x1 = 0.9) of 202.77 ± 1.2 kg/m3, a mass density (483.15 K, 4053 kPa, Fluid (supercritical or subcritical phases), x1 = 0.8) of 176.37 ± 1.1 kg/m3 and a mass density (483.15 K, 4071 kPa, Fluid (supercritical or subcritical phases), x1 = 0.8) of 181.18 ± 1.1 kg/m3. It also gave a mass density (483.15 K, 4106 kPa, Fluid (supercritical or subcritical phases), x1 = 0.8) of 193.54 ± 1.1 kg/m3, a mass density (483.15 K, 4109 kPa, Fluid (supercritical or subcritical phases), x1 = 0.9) of 221.12 ± 1.3 kg/m3 and a mass density (483.15 K, 4156 kPa, Fluid (supercritical or subcritical phases), x1 = 0.9) of 233.52 ± 1.4 kg/m3. It also gave a mass density (483.15 K, 4162 kPa, Fluid (supercritical or subcritical phases), x1 = 0.8) of 214.27 ± 1.2 kg/m3, a mass density (483.15 K, 4171 kPa, Fluid (supercritical or subcritical phases), x1 = 0.9) of 236.99 ± 1.4 kg/m3 and a mass density (483.15 K, 4179 kPa, Fluid (supercritical or subcritical phases), x1 = 0.8) of 220.05 ± 1.3 kg/m3. For the same compound, the mass density (483.15 K, 4189 kPa, Fluid (supercritical or subcritical phases), x1 = 0.9) was 241.4 ± 1.4 kg/m3, the mass density (483.15 K, 4200 kPa, Fluid (supercritical or subcritical phases), x1 = 0.9) was 244.72 ± 1.4 kg/m3 and the mass density (483.15 K, 4211 kPa, Fluid (supercritical or subcritical phases), x1 = 0.8) was 235.17 ± 1.3 kg/m3. For the same compound, the mass density (483.15 K, 4239 kPa, Fluid (supercritical or subcritical phases), x1 = 0.8) was 245.83 ± 1.3 kg/m3, the mass density (483.15 K, 4277 kPa, Fluid (supercritical or subcritical phases), x1 = 0.8) was 259.08 ± 1.4 kg/m3 and the mass density (483.15 K, 4309 kPa, Fluid (supercritical or subcritical phases), x1 = 0.9) was 282.57 ± 1.5 kg/m3. The mass density (483.15 K, 4317 kPa, Fluid (supercritical or subcritical phases), x1 = 0.8) was 273.08 ± 1.5 kg/m3, the mass density (483.15 K, 4417 kPa, Fluid (supercritical or subcritical phases), x1 = 0.8) was 288.96 ± 1.5 kg/m3 and the mass density (483.15 K, 4435 kPa, Fluid (supercritical or subcritical phases), x1 = 0.9) was 302.29 ± 1.6 kg/m3. For the same compound, the mass density (483.15 K, 4437 kPa, Liquid, x1 = 0.5) was 398.98 ± 0.82 kg/m3, the mass density (483.15 K, 4493 kPa, Fluid (supercritical or subcritical phases), x1 = 0.8) was 299.8 ± 1.6 kg/m3 and the mass density (483.15 K, 4551 kPa, Fluid (supercritical or subcritical phases), x1 = 0.9) was 312.96 ± 1.6 kg/m3. It also gave a mass density (483.15 K, 4646 kPa, Fluid (supercritical or subcritical phases), x1 = 0.8) of 316.01 ± 1.6 kg/m3, a mass density (483.15 K, 4807 kPa, Liquid, x1 = 0.2) of 510.78 ± 1 kg/m3 and a mass density (483.15 K, 4877 kPa, Fluid (supercritical or subcritical phases), x1 = 0.9) of 334.72 ± 1.7 kg/m3. It also gave a mass density (483.15 K, 4915 kPa, Fluid (supercritical or subcritical phases), x1 = 0.8) of 334.54 ± 1.7 kg/m3, a mass density (483.15 K, 5017 kPa, Liquid, x1 = 0.5) of 418.13 ± 0.85 kg/m3 and a mass density (483.15 K, 5178 kPa, Fluid (supercritical or subcritical phases), x1 = 0.8) of 346.09 ± 1.7 kg/m3. It also gave a mass density (483.15 K, 5428 kPa, Fluid (supercritical or subcritical phases), x1 = 0.9) of 354.86 ± 1.8 kg/m3, a mass density (483.15 K, 5641 kPa, Fluid (supercritical or subcritical phases), x1 = 0.8) of 362.7 ± 1.8 kg/m3 and a mass density (483.15 K, 6347 kPa, Liquid, x1 = 0.5) of 441.94 ± 0.9 kg/m3. It also gave a mass density (483.15 K, 7296 kPa, Liquid, x1 = 0.5) of 452.28 ± 0.92 kg/m3, a mass density (483.15 K, 8060 kPa, Liquid, x1 = 0.5) of 459.37 ± 0.93 kg/m3 and a mass density (483.15 K, 8482 kPa, Fluid (supercritical or subcritical phases), x1 = 0.9) of 408.19 ± 2 kg/m3. The mass density (483.15 K, 8984 kPa, Fluid (supercritical or subcritical phases), x1 = 0.8) was 419.13 ± 2.1 kg/m3, the mass density (483.15 K, 9371 kPa, Liquid, x1 = 0.5) was 469.23 ± 0.95 kg/m3 and the mass density (483.15 K, 10899 kPa, Liquid, x1 = 0.2) was 548.38 ± 1.1 kg/m3. It also gave a mass density (483.15 K, 16393 kPa, Fluid (supercritical or subcritical phases), x1 = 0.8) of 467.78 ± 2.4 kg/m3, a mass density (483.15 K, 16725 kPa, Liquid, x1 = 0.5) of 507.77 ± 1 kg/m3 and a mass density (483.15 K, 19754 kPa, Liquid, x1 = 0.5) of 520.6 ± 1.1 kg/m3. The mass density (483.15 K, 21392 kPa, Liquid, x1 = 0.2) was 582.82 ± 1.2 kg/m3, the mass density (483.15 K, 24098 kPa, Fluid (supercritical or subcritical phases), x1 = 0.8) was 497.3 ± 2.5 kg/m3 and the mass density (483.15 K, 27685 kPa, Liquid, x1 = 0.2) was 596.46 ± 1.2 kg/m3. It also gave a mass density (483.15 K, 28654 kPa, Liquid, x1 = 0.5) of 549.54 ± 1.1 kg/m3, a mass density (483.15 K, 34153 kPa, Fluid (supercritical or subcritical phases), x1 = 0.8) of 521.9 ± 2.6 kg/m3 and a mass density (483.15 K, 37683 kPa, Liquid, x1 = 0.2) of 615.9 ± 1.3 kg/m3. It also gave a mass density (484.15 K, 3395 kPa, Gas, x1 = 0.5) of 96.03 ± 0.31 kg/m3, a mass density (485.15 K, 3427 kPa, Gas, x1 = 0.5) of 96.02 ± 0.32 kg/m3 and a mass density (486.15 K, 3456 kPa, Gas, x1 = 0.5) of 96.02 ± 0.33 kg/m3. The mass density (486.15 K, Liquid, x1 = 0.5) was 345.21 ± 2.1 kg/m3, the mass density (487.15 K, 3750 kPa, Gas, x1 = 0.5) was 122.1 ± 0.41 kg/m3 and the mass density (487.15 K, 4130 kPa, Liquid, x1 = 0.5) was 345.19 ± 0.72 kg/m3. It also gave a mass density (488.15 K, 3498 kPa, Gas, x1 = 0.5) of 96.01 ± 0.34 kg/m3, a mass density (488.15 K, 3783 kPa, Gas, x1 = 0.5) of 122.1 ± 0.41 kg/m3 and a mass density (488.15 K, 4237 kPa, Liquid, x1 = 0.5) of 345.17 ± 0.72 kg/m3. The mass density (488.75 K, Liquid, x1 = 0.5) was 325.84 ± 2 kg/m3, the mass density (489.15 K, 3815 kPa, Gas, x1 = 0.5) was 122.09 ± 0.42 kg/m3 and the mass density (489.15 K, 4203 kPa, Liquid, x1 = 0.5) was 325.83 ± 0.68 kg/m3. The mass density (489.55 K, Liquid, x1 = 0.5) was 320.54 ± 1.9 kg/m3, the mass density (489.85 K, Liquid, x1 = 0.2) was 471.25 ± 2.8 kg/m3 and the mass density (490.15 K, 3453 kPa, Liquid, x1 = 0.2) was 471.25 ± 0.96 kg/m3. For the same compound, the mass density (491.15 K, 4012 kPa, Gas, x1 = 0.5) was 144.34 ± 0.49 kg/m3 and the mass density (491.65 K, Liquid, x1 = 0.5) was 299.15 ± 1.8 kg/m3.

From the NIST ThermoML archive (doi:10.1016/j.jct.2016.10.023)
